According to ChEMBL document CHEMBL1201862, “PubChem BioAssay data set” (2004):
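In this assay, cells in 96-well plates receive the compound at five concentrations for 48 hours. Endpoints are linearly interpolated between the surrounding concentrations. The concentration for 50% growth inhibition is given as GI50.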 Active and inactive are the calls of the source. Cut-off read from the data, not from the text of the source: active = GI50 up to about 1.1 µM and inactive = higher.

Tests used:
Assay in all cases: NCI anticancer screen, dose series, 48 h
SF-295 = test system: SF-295
KM12 = test system: KM12
SK-MEL-28 = test system: SK-MEL-28
HOP-92 = test system: HOP-92
HCT-116 = test system: HCT-116
SK-OV-3 = test system: SK-OV-3
CCRF-CEM = test system: CCRF-CEM
HL-60 = test system: HL-60
MDA-N = test system: MDA-N
OVCAR-4 = test system: OVCAR-4
NCI-H522 = test system: NCI-H522
A498 = test system: A498
OVCAR-5 = test system: OVCAR-5
T47D = test system: T47D
SNB-75 = test system: SNB-75
SK-MEL-5 = test system: SK-MEL-5
NCI/ADR-RES = test system: NCI/ADR-RES
MCF7 = test system: MCF7
PC-3 = test system: PC-3
SF-268 = test system: SF-268
SNB-19 = test system: SNB-19
BT-549 = test system: BT-549
NCI-H23 = test system: NCI-H23
UACC-257 = test system: UACC-257
MDA-MB-435 = test system: MDA-MB-435
NCI-H226 = test system: NCI-H226
UO-31 = test system: UO-31
ACHN = test system: ACHN
EKVX = test system: EKVX
HCC 2998 = test system: HCC 2998
UACC-62 = test system: UACC-62
OVCAR-3 = test system: OVCAR-3
HT-29 = test system: HT-29
MDA-MB-231 = test system: MDA-MB-231
IGROV-1 = test system: IGROV-1
Hs-578T = test system: Hs-578T
M14 = test system: M14
SF-539 = test system: SF-539
DU-145 = test system: DU-145
SW-620 = test system: SW-620
OVCAR-8 = test system: OVCAR-8
A549 = test system: A549
Malme-3M = test system: Malme-3M
MOLT-4 = test system: MOLT-4
CAKI-1 = test system: CAKI-1
SK-MEL-2 = test system: SK-MEL-2
SN12C = test system: SN12C
TK-10 = test system: TK-10
RPMI-8226 = test system: RPMI-8226
U-251 = test system: U-251
LOX IMVI = test system: LOX IMVI
K562 = test system: K562
HCT-15 = test system: HCT-15
NCI-H460 = test system: NCI-H460
786-0 = test system: 786-0
COLO 205 = test system: COLO 205
HOP-62 = test system: HOP-62
RXF 393 = test system: RXF 393

Question: What does the source list for `COC(=O)c1ccc(NCC2=C(Br)C(=O)C=CC2=O)cc1Cl`?
Answer: GI50 (SF-295): 40.1 µM (inactive); GI50 (KM12): 34.5 µM (inactive); GI50 (SK-MEL-28): 18.8 µM (inactive); GI50 (HOP-92): 15.6 µM (inactive); GI50 (HCT-116): 18 µM (inactive); GI50 (SK-OV-3): > 100 µM (inactive); GI50 (CCRF-CEM): > 100 µM (inactive); GI50 (HL-60): 3.68 µM (inactive); GI50 (MDA-N): 16.9 µM (inactive); GI50 (OVCAR-4): 24.4 µM (inactive); GI50 (NCI-H522): 6.43 µM (inactive); GI50 (A498): > 100 µM (inactive); GI50 (OVCAR-5): 21.8 µM (inactive); GI50 (T47D): 20 µM (inactive); GI50 (SNB-75): 42.5 µM (inactive); GI50 (SK-MEL-5): 20.1 µM (inactive); GI50 (NCI/ADR-RES): 23.2 µM (inactive); GI50 (MCF7): 17 µM (inactive); GI50 (PC-3): 20 µM (inactive); GI50 (SF-268): 16.8 µM (inactive); GI50 (SNB-19): > 100 µM (inactive); GI50 (BT-549): 13.1 µM (inactive); GI50 (NCI-H23): 21 µM (inactive); GI50 (UACC-257): 23.8 µM (inactive); GI50 (MDA-MB-435): 19.2 µM (inactive); GI50 (NCI-H226): 74.8 µM (inactive); GI50 (UO-31): 16.4 µM (inactive); GI50 (ACHN): 17 µM (inactive); GI50 (EKVX): 14.1 µM (inactive); GI50 (HCC 2998): 42.6 µM (inactive); GI50 (UACC-62): 18.8 µM (inactive); GI50 (OVCAR-3): 13.9 µM (inactive); GI50 (HT-29): 17.7 µM (inactive); GI50 (MDA-MB-231): 18.3 µM (inactive); GI50 (IGROV-1): 15.5 µM (inactive); GI50 (Hs-578T): 21.9 µM (inactive); GI50 (M14): 18.2 µM (inactive); GI50 (SF-539): 16.8 µM (inactive); GI50 (DU-145): 22.8 µM (inactive); GI50 (SW-620): 16 µM (inactive); GI50 (OVCAR-8): 19.3 µM (inactive); GI50 (A549): > 100 µM (inactive); GI50 (Malme-3M): 15.2 µM (inactive); GI50 (MOLT-4): 17.7 µM (inactive); GI50 (CAKI-1): 26.9 µM (inactive); GI50 (SK-MEL-2): 20.2 µM (inactive); GI50 (SN12C): 16.5 µM (inactive); GI50 (TK-10): 16.4 µM (inactive); GI50 (RPMI-8226): 40.3 µM (inactive); GI50 (U-251): 22.8 µM (inactive); GI50 (LOX IMVI): 14.9 µM (inactive); GI50 (K562): 3.54 µM (inactive); GI50 (HCT-15): 15.8 µM; GI50 (NCI-H460): 17.2 µM (inactive); GI50 (786-0): 13.3 µM (inactive); GI50 (COLO 205): 17.8 µM (inactive)

Question: How did the GI50 (SF-295) turn out when `COC(=O)Nc1nc2cc(NS(=O)(=O)c3ccc(F)cc3)ccc2[nH]1` was run?
Answer: 14.5 µM (inactive)

Question: What about the GI50 (KM12) of the same molecule?
Answer: 4.43 µM (inactive)

Question: And the GI50 (SK-MEL-28)?
Answer: 9.75 µM (inactive)

Question: And the GI50 (HOP-92)?
Answer: 10.5 µM (inactive)

Question: What about the GI50 (HCT-116) of the same molecule?
Answer: 4.54 µM (inactive)

Question: What about the GI50 (SK-OV-3) of the same molecule?
Answer: 13.1 µM (inactive)

Question: And the GI50 (CCRF-CEM)?
Answer: 13.7 µM (inactive)

Question: And the GI50 (HL-60)?
Answer: 4.03 µM (inactive)

Question: What about the GI50 (MDA-N) of the same molecule?
Answer: 2.14 µM (inactive)

Question: What about the GI50 (OVCAR-4) of the same molecule?
Answer: 33.9 µM (inactive)

Question: What about the GI50 (NCI-H522) of the same molecule?
Answer: 2.1 µM (inactive)

Question: And the GI50 (A498)?
Answer: 11.3 µM (inactive)

Question: What about the GI50 (OVCAR-5) of the same molecule?
Answer: 45.2 µM (inactive)

Question: And the GI50 (T47D)?
Answer: > 100 µM (inactive)

Question: And the GI50 (SNB-75)?
Answer: 6.49 µM (inactive)

Question: What about the GI50 (SK-MEL-5) of the same molecule?
Answer: 5.77 µM (inactive)

Question: What about the GI50 (NCI/ADR-RES) of the same molecule?
Answer: 13.3 µM (inactive)

Question: And the GI50 (MCF7)?
Answer: 4.57 µM (inactive)

Question: And the GI50 (PC-3)?
Answer: 22.9 µM (inactive)

Question: And the GI50 (HOP-62)?
Answer: 43.3 µM (inactive)

Question: What about the GI50 (SF-268) of the same molecule?
Answer: 72.6 µM (inactive)

Question: And the GI50 (SNB-19)?
Answer: 6.46 µM (inactive)

Question: And the GI50 (RXF 393)?
Answer: 18.5 µM (inactive)

Question: And the GI50 (BT-549)?
Answer: > 100 µM (inactive)

Question: What about the GI50 (NCI-H23) of the same molecule?
Answer: 21.8 µM (inactive)

Question: What about the GI50 (MDA-MB-435) of the same molecule?
Answer: 2.65 µM (inactive)

Question: What about the GI50 (NCI-H226) of the same molecule?
Answer: 77.8 µM (inactive)

Question: What about the GI50 (UO-31) of the same molecule?
Answer: 37.6 µM (inactive)

Question: What about the GI50 (ACHN) of the same molecule?
Answer: 42.2 µM (inactive)

Question: What about the GI50 (EKVX) of the same molecule?
Answer: 31.3 µM (inactive)

Question: What about the GI50 (UACC-62) of the same molecule?
Answer: 9.23 µM (inactive)

Question: And the GI50 (OVCAR-3)?
Answer: 2.8 µM (inactive)

Question: What about the GI50 (HT-29) of the same molecule?
Answer: 7.73 µM (inactive)

Question: And the GI50 (MDA-MB-231)?
Answer: 21.9 µM (inactive)

Question: And the GI50 (IGROV-1)?
Answer: 2.15 µM (inactive)

Question: And the GI50 (Hs-578T)?
Answer: 2.07 µM (inactive)

Question: What about the GI50 (M14) of the same molecule?
Answer: 7.48 µM (inactive)

Question: What about the GI50 (SF-539) of the same molecule?
Answer: 12.2 µM (inactive)

Question: And the GI50 (DU-145)?
Answer: 39.2 µM (inactive)

Question: What about the GI50 (SW-620) of the same molecule?
Answer: 6.27 µM (inactive)

Question: And the GI50 (OVCAR-8)?
Answer: 35 µM (inactive)

Question: What about the GI50 (A549) of the same molecule?
Answer: 37.2 µM (inactive)

Question: What about the GI50 (Malme-3M) of the same molecule?
Answer: 7.5 µM (inactive)

Question: What about the GI50 (MOLT-4) of the same molecule?
Answer: 6.75 µM (inactive)

Question: What about the GI50 (CAKI-1) of the same molecule?
Answer: 23.6 µM (inactive)

Question: What about the GI50 (SK-MEL-2) of the same molecule?
Answer: 31 µM (inactive)

Question: What about the GI50 (SN12C) of the same molecule?
Answer: 68.9 µM (inactive)

Question: And the GI50 (TK-10)?
Answer: 14.4 µM (inactive)

Question: And the GI50 (RPMI-8226)?
Answer: 15 µM (inactive)

Question: What about the GI50 (U-251) of the same molecule?
Answer: 19.1 µM (inactive)

Question: And the GI50 (LOX IMVI)?
Answer: 48.1 µM (inactive)

Question: And the GI50 (K562)?
Answer: 4.65 µM (inactive)

Question: What about the GI50 (HCT-15) of the same molecule?
Answer: 8.22 µM

Question: And the GI50 (NCI-H460)?
Answer: 24.7 µM (inactive)

Question: And the GI50 (786-0)?
Answer: 40 µM (inactive)

Question: What about the GI50 (COLO 205) of the same molecule?
Answer: 5.25 µM (inactive)
